Data set [1] relates to E. coli NB27273-CDY0033 (KPC2). Briefly: MIC by broth microdilution, isogenic E. coli expressing KPC2. Format: cell-based. The note with it: Escherichia coli, read-out: Inhibitory Concentration (MIC) Ec KPC2 Iso. As for the experimental part:
(§1) Bacterial isolates were cultivated from −70° C. frozen stocks by two consecutive overnight passages at 35° C. in ambient air on 5% blood agar (Remel, Lenexa, Kans.). Quality control and P. aeruginosa ATCC 27853) is from the American Type Culture Collection (ATCC; Rockville, Md.) and PAO1 was received from Dr. K. Poole.
Strain NB27273 (BW25113 pspB::Km^r) was obtained from the Keio transposon insertion collection. The strain has the pspB gene replaced by a kanamycin resistance marker (BW25113 pspB::Km^r). This strain was cured of the transposon in pspB via FLP recombinase using published methodology. The resulting strain, BW25113 pspB, was used as a host for multicopy vectors expressing key β-lactamases. Multicopy plasmids directing constitutive expression of β-lactamases were established as follows: Synthetic, codon optimized genes encoding E. coli KPC2 and SHV12-lactamases were made by DNA2.0 (Palo Alto, Calif.). Each of the synthetic fragments were designed to contain NotI and NcoI restriction sites at their termini, allowing ligation into a NotI/NcoI digested pET28a(+) derivative for protein expression. […]
(In general: Dilution methods test growth across graded concentrations, often in twofold steps.)

In another data set the test system is E. coli strain 25922. Briefly: MIC by broth microdilution, E. coli strain 25922. The class given is cell-based. The note with it: Escherichia coli, salt: none, read-out: Inhibitory Concentration (MIC) Ec 25922. As for the experimental part: as §1
Minimal Inhibitory Concentrations (MICs) were determined by the broth microdilution method in accordance with Clinical and Laboratories Institute (CLSI) guidelines. In brief, fresh overnight bacterial cultures were suspended in sterile saline, and adjusted to a 0.5 McFarland turbidity standard. Bacterial suspensions were then diluted in cation adjusted Mueller-Hinton Broth (MHB II; BBL) to yield a final inoculum of approximately 5×10^5 colony-forming units (CFU)/mL. A master plate of antibiotics was prepared at a concentration equivalent to hundred-fold the highest desired final concentration in 100% dimethyl sulfoxide (DMSO). […] The assay plates were read using a microtiter plate reader (Molecular Devices) at 600 nm as well as by visual observation with a reading mirror. The lowest concentration of the compound that prevented visible growth was recorded as the MIC. Performance of the assay was monitored by testing aztreonam against laboratory quality control strains in accordance with guidelines of the CLSI.

The nature of data set [2]: Stability of Compound X and its salts in aqueous solution. The class given is physicochemical. The note with it: in solution, before addition of arginine or other base. From the text: It is important for a drug product to be stable enough to avoid significant degradation when it is shipped and stored under commercially practical conditions. The inventors have discovered that Compound X in solution is preferably used and stored at a pH between 4 and 6, preferably between 4.0 and 5.5, for maximum stability in the presence of moisture. Optimal solution stability is achieved at a pH of about 4.0 to 5.5 Accordingly, the invention provides pharmaceutical compositions comprising Compound X at a pH between 4 and 6, preferably between 4.0 and 5.5, and more preferably at a pH of about 5±0.5 or at pH of 5±0.2. Suitable compositions comprise Compound X in an aqueous solution, such as a dextrose or saline solution, which may be isotonic, and may contain other substances such as stabilizers, antioxidants, buffers or pH modifiers, nutrients, and the like. In some of these embodiments, the desired pH is achieved by combining Compound X and a pH modifier suitable to achieve the desired pH in an aqueous solution. Suitable pH modifiers include but are not limited to sodium hydroxide, sodium carbonate, sodium bicarbonate, potassium carbonate, potassium hydroxide, amines such as TRIS (tris(hydroxymethyl)aminomethane), and amino acids such as arginine, lysine, histidine, and the like. Known monobactams, including aztreonam, have been formulated with arginine. […]

The nature of the next data set: Photochemical stability. The class given is physicochemical. As for the experimental part:
Compound X (500 mg) and L-arginine (332.5 mg) are combined in a vial. Saccharose (crystalline, pyrogen-free sucrose: 1000 mg) is added along with water suitable for injection (8.00 mL). The pH of the solution is adjusted, if necessary, using 1.0N HCl or 1.0N NaOH to arrive at a pH of 5.0±0.5, preferably a pH of 5.0±0.2. This provides a solution containing about 62.5 mg/mL of Compound X as an arginine salt. This solution can be filtered if necessary, and can be lyophilized to provide a white or off-white solid (lyophilizate). The lyophilized solid can be reconstituted with sterile water or a pharmaceutically acceptable aqueous carrier such as isotonic saline or dextrose to provide a solution suitable for intravenous administration. The lyophilizate should be stored in a container that excludes light to protect the lyophilizate from photodegradation. This process can be scaled up or down to provide unit dosages for storage and distribution, or bulk material that can be further processed as desired.
In one embodiment of the invention, Compound X is packaged in a container that substantially reduces exposure to light, preferably in an atmosphere at a relative humidity of 25-50% humidity and more preferably at a relative humidity of 30-40% or 30-45%.

Each structure is given as a SMILES string. Values after ≈ are worked out from the molar mass of the structure shown.

`Nc1nc(/C(=N/OC2(C(=O)O)CC2)C(=O)N[C@@H]2C(=O)N(S(=O)(=O)O)[C@@H]2CN2CCOC2=O)cs1` [Compound X, 1-(((Z)-(1-(2-aminothiazol-4-yl)-2-oxo-2-(((3S,4R)-2-oxo-4-((2-oxooxazolidin-3-yl)methyl)-1-sulfoazetidin-3-yl)amino)ethylidene)amino)oxy)cyclopropanecarboxylic acid]: the MIC in data set [1] was 125 µg/mL (≈ 241 µM); with E. coli strain 25922 it was 250 µg/mL. The “hydrolytic stability in water” value in data set [2] is on record as “subject to hydrolytic degradation in water in the absence of a base or outside the pH range of 4-6”. In the data set “Photochemical stability”, the photochemical stability result is recorded as “degrade photochemically”.

For the origin of these results see patent publication US10919887B2, “Salts and solid forms of a monobactam antibiotic” (Novartis AG, priority 2015, dated 2021).
